Assay results published in US12240862B2, “Inhibitors of peptidylarginine deiminases” (Gilead Sciences, Inc., priority 2020, dated 2025).

target: T1, human PAD4 (Homo sapiens, UniProt Q9UM07); assay: In vitro PAD4 BAEE biochemical assay; settings: human PAD4, BAEE substrate; 5 nM PAD4, 2 mM calcium chloride, 3 mM BAEE; geometric mean of multiple experiments
T1 construct: human PAD4 (NM_012387), A2P663, was PCR amplified; His-SUMO (N, cleaved yes); made in house; host or cells: E. coli BL21(DE3)
How it was run: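 Ammonia release from BAEE deimination monitored by o-phthalaldehyde amine coupling (1 h, 25 °C) after EDTA stop. Final conditions: 5 nM tag-free recombinant human PAD4 (E. coli), 2 mM CaCl2, 3 mM BAEE, pH 7.6 MOPS with DTT; 30 min compound preincubation, then 2 h reaction at 25 °C.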

T1 sequence (Q9UM07 2-663): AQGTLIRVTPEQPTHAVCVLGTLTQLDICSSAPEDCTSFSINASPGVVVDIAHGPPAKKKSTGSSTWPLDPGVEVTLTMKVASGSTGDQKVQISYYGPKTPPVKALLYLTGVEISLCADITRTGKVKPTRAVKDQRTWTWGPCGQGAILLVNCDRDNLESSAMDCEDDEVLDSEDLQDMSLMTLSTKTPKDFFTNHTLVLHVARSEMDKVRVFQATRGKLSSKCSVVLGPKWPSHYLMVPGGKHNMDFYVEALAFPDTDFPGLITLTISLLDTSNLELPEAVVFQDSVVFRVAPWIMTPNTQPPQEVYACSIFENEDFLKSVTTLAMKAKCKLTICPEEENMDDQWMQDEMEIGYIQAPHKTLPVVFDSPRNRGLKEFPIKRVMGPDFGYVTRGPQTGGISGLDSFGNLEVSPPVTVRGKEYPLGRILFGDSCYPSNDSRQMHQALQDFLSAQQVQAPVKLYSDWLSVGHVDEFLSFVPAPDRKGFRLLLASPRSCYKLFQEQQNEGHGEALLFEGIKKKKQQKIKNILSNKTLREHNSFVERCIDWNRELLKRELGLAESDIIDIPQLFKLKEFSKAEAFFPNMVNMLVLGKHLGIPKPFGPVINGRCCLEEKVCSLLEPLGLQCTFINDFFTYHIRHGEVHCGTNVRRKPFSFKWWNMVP

Compound	IC50 [nM]
COc1cc(C(=O)N2[C@H]3CC[C@@H]2[C@H](N)C3)cc2nc(-c3cc4ccc(C(C)(C)NC(=O)C(C)(C)C)nc4n3CC3CC3)c(C)n12 [Example 168, ~{N}-[2-[2-[7-[(1~{R},2~{R},4~{S})-2-amino-7-azabicyclo[2.2.1]heptane-7-carbonyl]-5-methoxy-3-methylimidazo [1,2-a]pyridin-2-yl]-1-(cyclopropylmethyl)pyrrolo [2,3-b]pyridin-6-yl]propan-2-yl]-2,2-dimethylpropanamide]	171
CCc1ccc2cc(-c3nc4cc(C(=O)N5CC6(N)CCC5CC6)cc(OC)n4c3C)n(CC3CC3)c2n1 [Example 593, (4-amino-2-azabicyclo[2.2.2]octan-2-yl)-[2-[1-(cyclopropylmethyl)-6-ethylpyrrolo[2,3-b]pyridin-2-yl]-5-methoxy-3-methylimidazo[1,2-a]pyridin-7-yl]methanone]	1900
COc1cc(C(=O)N2CCC[C@@H](N)C2)cc2nc(-c3cc4ccc([C@H](C)CC(=O)N(C)C)nc4n3CC3CC3)c(C)n12 [Example 534, (3~{R})-3-[2-[7-[(3~{R})-3-aminopiperidine-1-carbonyl]-5-methoxy-3-methylimidazo[1,2-a]pyridin-2-yl]-1-(cyclopropylmethyl)pyrrolo[2,3-b]pyridin-6-yl]-~{N},~{N}-dimethylbutanamide]	140
COc1cc(C(=O)N2[C@H]3CC[C@@H]2[C@H](N)C3)cc2nc(-c3cc4ccc([C@@H](C)NC(=O)c5cnn6c5CCC6)nc4n3CC3CC3)c(C)n12 [Example 74, ~{N}-[(1~{R})-1-[2-[7-[(1~{R},2~{R},4~{S})-2-amino-7-azabicyclo[2.2.1]heptane-7-carbonyl]-5-methoxy-3-methylimidazo [1,2-a]pyridin-2-yl]-1-(cyclopropylmethyl)pyrrolo [2,3-b]pyridin-6-yl]ethyl]-5,6-dihydro-4~{H}-pyrrolo[1,2-b] pyrazole-3-carboxamide]	28.3
COc1cc(C(=O)N2[C@H]3CC[C@@H]2[C@H](N)C3)cc2nc(-c3cc4ccc([C@@H](C)NC(=O)c5cn(C)nc5Cl)nc4n3CC3CC3)c(C)n12 [Example 76, ~{N}-[(1~{R})-1-[2-[7-[(1~{R},2~{R},4~{S})-2-amino-7-azabicyclo[2.2.1]heptane-7-carbonyl]-5-methoxy-3-methylimidazo [1,2-a]pyridin-2-yl]-1-(cyclopropylmethyl)pyrrolo [2,3-b]pyridin-6-yl]ethyl]-3-chloro-1-methylpyrazole-4-carboxamide]	58
COc1cc(C(=O)N2[C@H]3CC[C@@H]2[C@H](N)C3)cc2nc(-c3cc4ccc([C@@H](C)NC(=O)C5(C)COC5)nc4n3CC3CC3)c(C3CC3)n12 [Example 109, ~{N}-[(1~{R})-1-[2-[7-[(1~{R},2~{R},4~{S})-2-amino-7-azabicyclo[2.2.1]heptane-7-carbonyl]-3-cyclopropyl-5-methoxyimidazo [1,2-a]pyridin-2-yl]-1-(cyclopropylmethyl)pyrrolo [2,3-b]pyridin-6-yl]ethyl]-3-methyloxetane-3-carboxamide]	31.7
COc1cc(C(=O)N2[C@H]3CC[C@@H]2[C@H](N)C3)cc2nc(-c3cc4ccc([C@@H](C)NC(=O)NCc5ncccn5)nc4n3CC3CC3)c(C)n12 [Example 224, 1-[(1~{R})-1-[2-[7-[(1~{R},2~{R},4~{S})-2-amino-7-azabicyclo[2.2.1]heptane-7-carbonyl]-5-methoxy-3-methylimidazo [1,2-a]pyridin-2-yl]-1-(cyclopropylmethyl)pyrrolo [2,3-b]pyridin-6-yl]ethyl]-3-(pyrimidin-2-ylmethyl)urea]	31.5
COc1cc(C(=O)N2[C@H]3CC[C@@H]2[C@H](N)C3)cc2nc(-c3cc4ccc([C@@H](C)NC(=O)N5CC(F)(F)C5)nc4n3CC3CC3)c(C)n12 [Example 232, N—((R)-1-(2-(7-((1R,2R,4S)-2-amino-7-azabicyclo[2.2.1]heptane-7-carbonyl)-5-methoxy-3-methylimidazo[1,2-a]pyridin-2-yl)-1-(cyclopropylmethyl)-1H-pyrrolo[2,3-b]pyridin-6-yl)ethyl)-3,3-difluoroazetidine-1-carboxamide]	68.5
COc1cc(C(=O)N2[C@H]3CC[C@@H]2[C@H](N)C3)cc2nc(-c3cc4ccc([C@@H](C)NC(=O)C5C(F)(F)C56CC6)nc4n3CC3CC3)c(C)n12 (some centres unmarked) [Example 53, ~{N}-[(1~{R})-1-[2-[7-[(1~{R},2~{R}, 4~{S})-2-amino-7-azabicyclo[2.2.1]heptane-7-carbonyl]-5-methoxy-3-methylimidazo[1,2-a]pyridin-2-yl]-1-(cyclopropylmethyl)pyrrolo[2,3-b]pyridin-6-yl]ethyl]-2,2-difluorospiro[2.2] pentane-1-carboxamide]	37.2
COc1cc(C(=O)N2CC[C@@H](O)[C@@H](N)C2)cc2nc(-c3cc4ccc(N(C(F)F)S(C)(=O)=O)nc4n3CC3CC3)c(C)n12 [Example 348, ~{N}-[2-[7-[(3~{S}, 4~{R})-3-amino-4-hydroxypiperidine-1-carbonyl]-5-methoxy-3-methylimidazo [1,2-a]pyridin-2-yl]-1-(cyclopropylmethyl)pyrrolo[2,3-b]pyridin-6-yl]-~{N}-(difluoromethyl) methanesulfonamide]	144
COc1cc(C(=O)N2[C@H]3CC[C@@H]2[C@H](N)C3)cc2nc(-c3cc4ccc([C@@H](C)NC(=O)N5CCC5)nc4n3CC34CC(C3)C4)c(C)n12 [Example 488]	86.8
COc1cc(C(=O)N2C[C@H](N)CC[C@@H]2C)cc2nc(-c3cc4ccc(N(C(F)F)S(C)(=O)=O)nc4n3CC3CC3)c(CC3CC3)n12 [Example 405, ~{N}-[2-[7-[(2~{S},5~{R})-5-amino-2-methylpiperidine-1-carbonyl]-3-(cyclopropylmethyl)-5-methoxyimidazo[1,2-a]pyridin-2-yl]-1-(cyclopropylmethyl)pyrrolo [2,3-b]pyridin-6-yl]-~{N}-(difluoromethyl) methanesulfonamide]	589
COc1cc(C(=O)N2CCC[C@@H](N)C2)cc2nc(-c3cc4ccc(N(C(F)F)S(C)(=O)=O)nc4n3CC(F)(F)F)c(C)n12 [Example 494, ~{N}-[2-[7-[(3~{R})-3-aminopiperidine-1-carbonyl]-5-methoxy-3-methylimidazo[1,2-a]pyridin-2-yl]-1-(2,2,2-trifluoroethyl)pyrrolo [2,3-b]pyridin-6-yl]-~{N}-(difluoromethyl) methanesulfonamide]	276
COc1cc(C(=O)N2[C@H]3CC[C@@H]2[C@H](N)C3)cc2nc(-c3cc4ccc(N5CCOCS5(=O)=O)nc4n3CC3CC3)c(C)n12 [Example 458, [(1~{R},2~{R},4~{S})-2-amino-7-azabicyclo [2.2.1]heptan-7-yl]-[2-[1-(cyclopropylmethyl)-6-(3,3-dioxo-1,3,4-oxathiazinan-4-yl)pyrrolo [2,3-b]pyridin-2-yl]-5-methoxy-3-methylimidazo[1,2-a]pyridin-7-yl]methanone]	52.3
COc1cc(C(=O)N2CCC[C@@H](N)C2)cc2nc(-c3cc4ccc(N(C(F)F)S(C)(=O)=O)nc4n3CC3CC3)c(C)n12 [Example 388, ~{N}-[2-[7-[(3~{R})-3-aminopiperidine-1-carbonyl]-5-methoxy-3-methylimidazo [1,2-a]pyridin-2-yl]-1-(cyclopropylmethyl)pyrrolo [2,3-b]pyridin-6-yl]-~{N}-(difluoromethyl) methanesulfonamide]	95.3
COc1cc(C(=O)NC2C3CCCNC32)cc2nc(-c3cc4ccc(N(C(F)F)S(C)(=O)=O)nc4n3CC3CC3)c(C)n12 (centres unmarked) [Example 339, ~{N}-(2-azabicyclo[4.1.0]heptan-7-yl)-2-[1-(cyclopropylmethyl)-6-[difluoromethyl (methylsulfonyl)amino]pyrrolo[2,3-b]pyridin-2-yl]-5-methoxy-3-methylimidazo[1,2-a]pyridine-7-carboxamide]	21500
COc1cc(C(=O)N2[C@H]3CC[C@@H]2[C@H](N)C3)cc2nc(-c3cc4ccc([C@@H](C)NC(=O)c5cncs5)nc4n3CC3CC3)c(C)n12 [Example 72, ~{N}-[(1~{R})-1-[2-[7-[(1~{R},2~{R},4~{S})-2-amino-7-azabicyclo[2.2.1]heptane-7-carbonyl]-5-methoxy-3-methylimidazo [1,2-a]pyridin-2-yl]-1-(cyclopropylmethyl)pyrrolo [2,3-b]pyridin-6-yl]ethyl]-1,3-thiazole-5-carboxamide]	32.7
CCO[C@@H]1CCN(C(=O)c2cc(OC)n3c(C)c(-c4cc5ccc([C@@H](C)NC(=O)c6ccccc6)nc5n4CC4CC4)nc3c2)C[C@@H]1N [Example 112, ~{N}-[(1~{R})-1-[2-[7-[(3~{S},4~{R})-3-amino-4-ethoxypiperidine-1-carbonyl]-5-methoxy-3-methylimidazo[1,2-a]pyridin-2-yl]-1-(cyclopropylmethyl)pyrrolo [2,3-b]pyridin-6-yl]ethyl]benzamide]	307
COc1cc(C(=O)N2C[C@H]3CCCN[C@H]3C2)cc2nc(-c3cc4ccc(N(C(F)F)S(C)(=O)=O)nc4n3CC3CC3)c(C)n12 [Example 336, ~{N}-[2-[7-[(4~{a}~{R},7~{a}~{R})-1,2,3,4,4~{a},5,7,7~{a}-octahydropyrrolo[3,4-b]pyridine-6-carbonyl]-5-methoxy-3-methylimidazo[1,2-a]pyridin-2-yl]-1-(cyclopropylmethyl)pyrrolo [2,3-b]pyridin-6-yl]-~{N}-(difluoromethyl) methanesulfonamide]	484
~{N}-[(1~{R})-1-[2-[7- [(1~{R},2~{R},4~{S})- 2-amino-7-azabicyclo [2.2.1]heptane- 7-carbonyl]-5-methoxy- 3-methylimidazo [1,2-a]pyridin-2-yl]-1- (cyclopropylmethyl) pyrrolo[2,3-b]pyridin- 6-ylethyl]-2,2- dimethylcyclopropane- 1-carboxamide [Example 70]	63.2
